Source: US20140378460A1, “COMPOSITIONS AND METHODS FOR TREATING NEURODEGENERATIVE DISEASE” (COGNITION THERAPEUTICS, INC., priority 2011, published 2014)
Entries after “also recorded” stand apart in the source; their conditions may differ. Read-outs that look alike come from different tables or passages of the source.

Assays:
[1] = tested on: Abeta oligomer-induced membrane trafficking deficits in primary hippocampal neurons; test: Membrane trafficking/exocytosis (MTT) assay; format: cell-based, rat; conditions: for EC50: Rattus norvegicus, Hippocampal neuron; for Effect on membrane trafficking when dosed alone (words): absence of Abeta oligomers; for Effect against human Alzheimer's patient-derived Abeta oligomers (words): oligomers isolated from AD patient brains
[2] = tested on: sigma 2 (agonist radioligand); test: Receptor panel, inhibition of binding; conditions: Compound II 10 uM
[3] = target: mu (MOP) (h) (agonist radioligand) (Homo sapiens, UniProt P35372); test: Receptor panel, inhibition of binding
[4] = tested on: Abeta oligomer-induced synapse loss in primary hippocampal neurons; test: Synapse loss assay; format: cell-based, rat
Experimental: In this assay, Abeta oligomers were brought in contact with mature primary neurons in culture and their binding was determined by immunohistochemistry (anti-Abeta antibody) and quantified by image processing. The amount of Abeta in neuronal dendrites is assessed by counting the number of labeled puncta on the neuritis. […] This labeling is associated with synapses, co-localizing with the post-synaptic scaffold protein PSD-95 (Lacor et al., '04). […] The number of synapses can also be quantified in this assay by immunofluorochemistry. Similar procedures for binding assays can be found in the literature. […] Review.
Primary hippocampal neuronal culture was established as in the membrane trafficking assay above. […] Pretreatment with compounds to be tested lasted for 1 hr and addition of Abeta oligomers or no oligomer (vehicle alone) in a final concentration of 70 ul was followed by incubation for an additional 23 hrs.
The plates were then washed 3× with PBS for 5 min each. The plates were blocked at RT for 1 hr in 5% goat serum and 0.5% Triton X-100 in PBS. […] Primary antibodies were incubated overnight at 4° C. The plates were then washed 3× with PBS for 5 min each. […] Secondary antibodies were incubated at RT for 1 hr. The plates were washed once with PBS. DAPI (4′,6-diamidino-2-phenylindole, Invitrogen) was then applied at 0.03 ug/ul and incubated at RT for 5 min, then washed with PBS.

[5] = tested on: hAPP transgenic mice (Swedish and London mutations); test: Morris water maze in hAPP transgenic mice; format: in vivo, mouse; conditions: II 0.5 mg/kg/day; subcutaneous minipump
Experimental: In this study, rather than preventing deficits from occurring, deficits that were already established were treated. These studies were performed pursuant to a service contract by scientists who were blind to the experimental conditions. […]
The swim speed was analyzed as part of the Morris measurements to determine if there were any motor or motivational deficits. Our vehicle is a 5% DMSO/5% Solutol, 90% saline mixture. […] The average of three daily trials on each of four consecutive days were determined.
Escape latency measurements from the Morris water test were taken.
During the final four days of treatment, mice were tested to find the hidden platform in three trials/day. A computerized tracking system automatically quantified escape latency, or swim length.

[6] = tested on: caspase-3 in SKOV-3 human ovarian cancer cells; test: Caspase-3 activity in tumor cells; format: cell-based
[7] = tested on: caspase-3 in neuronal cultures; test: Caspase-3 activity in neurons; format: cell-based
hERG = hERG (Homo sapiens, UniProt Q12809); test: hERG inhibition; conditions: 100 nM
PGP = PGP (Homo sapiens, UniProt P08183); test: PGP activity; format: in vitro ADME
neuronal cultures = test: Neuronal nuclear intensity / morphology; conditions: 24 hours
[8] = Genotoxicity (AMES, micronucleus, bacterial cytotox); conditions: 10 μM

mu (MOP) (h) (agonist radioligand), sequence (P35372 whole entry): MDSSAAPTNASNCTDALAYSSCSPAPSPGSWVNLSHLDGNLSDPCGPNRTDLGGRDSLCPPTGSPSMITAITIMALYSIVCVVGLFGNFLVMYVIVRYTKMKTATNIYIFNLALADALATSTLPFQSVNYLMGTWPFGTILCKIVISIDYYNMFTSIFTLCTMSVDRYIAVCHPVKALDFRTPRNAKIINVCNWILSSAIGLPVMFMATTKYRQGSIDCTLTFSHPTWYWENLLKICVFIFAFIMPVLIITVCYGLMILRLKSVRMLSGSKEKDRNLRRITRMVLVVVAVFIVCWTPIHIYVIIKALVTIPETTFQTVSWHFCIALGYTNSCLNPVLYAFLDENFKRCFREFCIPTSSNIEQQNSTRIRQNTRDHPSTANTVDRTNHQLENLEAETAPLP
PGP, sequence (P08183 whole entry): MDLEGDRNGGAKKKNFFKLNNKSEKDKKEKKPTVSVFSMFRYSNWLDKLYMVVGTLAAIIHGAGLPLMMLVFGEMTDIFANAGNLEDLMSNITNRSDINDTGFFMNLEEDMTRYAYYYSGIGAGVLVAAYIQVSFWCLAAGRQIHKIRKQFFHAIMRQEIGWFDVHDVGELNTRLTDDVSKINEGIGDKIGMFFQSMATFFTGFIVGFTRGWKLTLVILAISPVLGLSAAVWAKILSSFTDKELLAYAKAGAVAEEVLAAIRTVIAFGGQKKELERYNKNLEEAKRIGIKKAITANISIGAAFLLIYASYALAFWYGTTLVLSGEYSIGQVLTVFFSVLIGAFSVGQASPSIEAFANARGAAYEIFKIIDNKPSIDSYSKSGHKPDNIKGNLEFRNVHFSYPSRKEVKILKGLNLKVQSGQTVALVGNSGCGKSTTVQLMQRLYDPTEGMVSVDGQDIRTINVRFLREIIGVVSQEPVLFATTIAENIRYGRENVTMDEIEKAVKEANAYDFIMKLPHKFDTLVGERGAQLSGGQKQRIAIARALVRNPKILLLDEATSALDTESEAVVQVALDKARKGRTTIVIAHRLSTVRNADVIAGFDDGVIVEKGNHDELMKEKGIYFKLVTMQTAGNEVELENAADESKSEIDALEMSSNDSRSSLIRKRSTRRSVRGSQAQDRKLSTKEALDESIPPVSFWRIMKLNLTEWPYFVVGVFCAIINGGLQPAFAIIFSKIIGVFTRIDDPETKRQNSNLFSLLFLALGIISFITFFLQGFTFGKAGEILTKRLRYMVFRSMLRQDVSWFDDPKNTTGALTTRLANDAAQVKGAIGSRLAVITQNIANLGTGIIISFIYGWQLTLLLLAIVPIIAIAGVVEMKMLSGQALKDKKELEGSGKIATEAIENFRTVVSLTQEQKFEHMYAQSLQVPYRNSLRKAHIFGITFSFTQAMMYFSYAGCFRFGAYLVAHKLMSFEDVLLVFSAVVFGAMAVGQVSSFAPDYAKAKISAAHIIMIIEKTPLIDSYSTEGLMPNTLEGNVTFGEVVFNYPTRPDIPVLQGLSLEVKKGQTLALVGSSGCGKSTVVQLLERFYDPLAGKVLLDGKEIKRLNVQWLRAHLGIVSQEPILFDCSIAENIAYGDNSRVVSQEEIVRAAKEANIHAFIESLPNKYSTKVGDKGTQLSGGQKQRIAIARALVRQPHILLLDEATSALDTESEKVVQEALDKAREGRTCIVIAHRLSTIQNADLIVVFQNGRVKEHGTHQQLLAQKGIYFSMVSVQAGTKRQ
hERG, sequence (Q12809 whole entry): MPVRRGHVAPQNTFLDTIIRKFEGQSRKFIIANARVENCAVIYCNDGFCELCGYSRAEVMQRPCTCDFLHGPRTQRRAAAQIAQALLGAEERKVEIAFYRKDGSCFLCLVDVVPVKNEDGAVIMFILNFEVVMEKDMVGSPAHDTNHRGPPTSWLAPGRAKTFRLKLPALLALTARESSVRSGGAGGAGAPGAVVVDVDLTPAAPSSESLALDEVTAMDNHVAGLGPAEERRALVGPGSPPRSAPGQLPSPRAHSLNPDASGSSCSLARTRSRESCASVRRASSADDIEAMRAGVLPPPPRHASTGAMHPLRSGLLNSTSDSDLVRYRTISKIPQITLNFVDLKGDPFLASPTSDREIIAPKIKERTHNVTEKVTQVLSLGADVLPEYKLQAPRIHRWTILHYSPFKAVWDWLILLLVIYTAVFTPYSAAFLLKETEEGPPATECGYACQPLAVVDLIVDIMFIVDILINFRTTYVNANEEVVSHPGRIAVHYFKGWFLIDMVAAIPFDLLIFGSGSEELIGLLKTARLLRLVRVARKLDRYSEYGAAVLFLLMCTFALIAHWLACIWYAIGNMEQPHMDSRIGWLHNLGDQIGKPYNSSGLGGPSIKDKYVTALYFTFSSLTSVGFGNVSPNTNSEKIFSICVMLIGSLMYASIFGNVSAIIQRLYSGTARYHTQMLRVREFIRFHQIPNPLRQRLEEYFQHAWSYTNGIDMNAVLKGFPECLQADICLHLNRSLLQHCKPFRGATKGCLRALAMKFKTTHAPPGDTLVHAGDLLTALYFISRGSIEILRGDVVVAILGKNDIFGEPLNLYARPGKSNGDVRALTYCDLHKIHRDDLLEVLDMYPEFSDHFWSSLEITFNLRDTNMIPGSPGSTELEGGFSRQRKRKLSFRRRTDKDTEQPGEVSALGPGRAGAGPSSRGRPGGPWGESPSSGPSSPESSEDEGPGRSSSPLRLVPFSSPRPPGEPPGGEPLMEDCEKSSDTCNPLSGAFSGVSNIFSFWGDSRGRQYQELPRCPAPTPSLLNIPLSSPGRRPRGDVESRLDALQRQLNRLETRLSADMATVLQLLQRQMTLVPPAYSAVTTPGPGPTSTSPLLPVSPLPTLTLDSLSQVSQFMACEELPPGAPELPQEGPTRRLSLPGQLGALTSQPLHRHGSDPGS

Compound: COc1cc(CCC(C)NCc2ccc(C(F)(F)F)cc2)ccc1O (stereo not drawn) [Compound II]
- Effect on Abeta oligomer trafficking deficits over the concentrations tested [1]: blocks oligomer-induced trafficking deficits at all concentrations tested
- Max Inhibition of Abeta (%) [1]: 68%
- Ki ([1]; Km for Abeta = 0.4 uM, assay concentr. 3 μM total Abeta, read-out: Calculated Ki): 260 nM
- EC50 ([1]; Table 11A, read-out: Block Aβ-induced membrane trafficking deficits EC50): 2200 nM
- EC50 ([1]; Table 11B, read-out: Inhibition Abeta oligomer-induced Membrane Trafficking EC50): 2200 nM
- EC50 ([1]; Table 12, read-out: EC50): 2200 nM
- EC50 ([1]; added after oligomers (treatment mode), read-out: EC50 blocking oligomer effects): 4100 nM
- EC50 ([1]; added before oligomers (prevention mode), read-out: EC50 blocking oligomer effects): 2200 nM
- Functional Neuronal Phenotype ([1]; Table 11B): Antagonist
- Effect on membrane trafficking when dosed alone (words) [1]: no significant effect on membrane trafficking
- Effect on membrane trafficking when dosed alone (words) ([1]; listed as compound II): does not affect membrane trafficking
- Cpd alone at Ki ([1]; compound without Abeta oligomers): +1%
- Max Inhib. of Abeta (Conc) ([1]; concentration in brackets): 85% (10)
- Effect against human Alzheimer's patient-derived Abeta oligomers (words) [1]: completely eliminated
- Effect against human Alzheimer's patient-derived Abeta oligomers (words) ([1]; listed as compound II): rightward shift; also recorded: blocks the membrane trafficking deficits
- Schild slope ([1]; synthetic Abeta oligomers): −0.75
- Assay effects in the absence of Aβ ([1]; trafficking or synapse number without Abeta oligomer): No
- % Inhibition of Control [2]: 89%
- Other Targets: Mu opioid ([3]; Table 11E): opioid (4 uM),
- inhibition at 10 µM ([3]; read-out: % Inhibition of Control): 60%
- Effect on Abeta oligomer-induced synapse loss [4]: completely eliminated this synaptic regression
- Abeta oligomer-induced synapse loss eliminated ([4]; 5 μM): 100%
- Block synapse loss ([4]; Table 11B): 100%
- Abeta oligomer-induced synapse loss eliminated / recovery ([4]; b801): 100%
- Morris water maze performance versus vehicle-treated transgenic animals [5]: significant improvement in transgenic performance
- Block of SV-119-induced caspase-3 activation in tumor cells [6]: do not block caspase-3 activation
- Caspase-3 activity induced in tumor cells [6]: did not induce caspase-3 activity
- Block of SV-119-induced caspase-3 activation in neurons [7]: blocked caspase-3 activation
- Caspase-3 activity induced in neurons [7]: did not induce caspase-3 activity
- hERG inhibition (hERG): 24%
- IC50 (PGP): > 30000 nM
- Nuclear morphology / nuclear intensity in neurons (neuronal cultures): did not decrease nuclear intensity
- Genotoxicity [8]: no genotoxicity
